Measurements as given in US20180207228A1, “PEPTIDE COMBINATIONS AND USES THEREOF FOR TREATING GRASS ALLERGY” (ALK-Abelló A/S, priority 2015, published 2018).
Where two headings read alike, the source gives them in different places. Where no end group is shown, it is not given here.

Experiments:
[1] = Extended solubility and short term stability study (visual, U-HPLC recovery, DLS, 90LS, UV-VIS, sum of scores); details: for solubility: pH 4.5
[2] = tested on: release of IFN-γ upon T cell activation; assay: Fluorospot assay, IFN-γ release (DK1-TCL01, US1-TCL01); format: cell-based, human; details: head prints TCL-02 DK1; 17 TCL-01 DK1 lines
In short: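 Grass-allergic donors' CD8-depleted PBMCs were expanded 14 days with natural grass allergens plus IL-2 to give TCL01 lines. These were incubated 20 h at 37° C with single peptides or peptide mixes at 2 μg/ml, and spot-forming cells were counted. Hit: SI≥2, p≤0.05, Poisson ≤0.05, ≥20 SFC/10^6 cells.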

Row | Substance | solubility in aqueous solutions and short-term stability [1] | solubility [1] | solubility in all the test samples (concentrations and pH tested), all solubility tests [1] | solubility by ranking scheme based on a sum of scores ([1]; 3 mg/ml, buffers tested) | solubility in aqueous solutions and short-term stability ([1]; pH in the range of 4.5 to 8.5) | IFN-gamma % donor coverage (TCL-02 DK1) [2] [%]
1 | AYESYKFIPALEAAVKQAYA-OH [peptide 285] | – | – | – | good solubility | sufficiently soluble | –
2 | DKYRTFVATFGAASNKAFAE-OH [peptide 231] | sufficiently soluble | acceptable solubility | – | – | – | –
3 | PANDKFTVFEAAFNNAIKAS-OH [compound 70] | – | – | – | – | – | 0.00
4 | VATLSEALRIIAGTLEVHAV-OH [compound 67] | – | – | – | – | – | 4.00

The next lines start with results.

Row | solubility in aqueous solutions and short-term stability [1] | solubility [1] | solubility in all the test samples (concentrations and pH tested), all solubility tests [1] | Substance | solubility by ranking scheme based on a sum of scores ([1]; 3 mg/ml, buffers tested) | solubility in aqueous solutions and short-term stability ([1]; pH in the range of 4.5 to 8.5) | IFN-gamma % donor coverage (TCL-02 DK1) [2] [%]
5 | sufficiently soluble | acceptable solubility | good solubility | STGGAYESYKFIPALEAAVK-OH [compound 71] | – | – | 0.00
6 | sufficiently soluble | acceptable solubility | good solubility | TDDNEEPIAPYHFDLSGHAF-OH [peptide 204] | – | – | –
7 | sufficiently soluble | acceptable solubility | – | WGAIWRIDTPDKLTGPFTVR-OH [peptide 211] | – | – | –
